The target of one assay is T1, IDH1 R132C (Homo sapiens, UniProt O75874, R132C).
T1 construct: 6xHis
Nature of the assay: Biochemical assay for IDH inhibition (NADPH fluorescence), mutant IDH1 R132C. The note with it: 25 nM IDH1-R132C, 1 hour pre-incubation, in triplet. Summed up: (§1)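 The read-out was the linear-phase loss of NADPH fluorescence (340/460 nm) over 15 min, background-subtracted and normalized to DMSO wells, giving triplicate IC50 values. Beforehand, R132H (50 nM) or R132C (25 nM) was exposed to compound for 1 h at room temperature with 1.33 mM α-KG at pH 7.5, and the reaction was triggered by adding an 80 μM NADPH solution.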

A further assay addresses T2, IDH1 R132H (Homo sapiens, UniProt O75874, R132H).
T2 construct: 6xHis
Nature of the assay: Biochemical assay for IDH inhibition (NADPH fluorescence), mutant IDH1 R132H. The note with it: 50 nM IDH1-R132H, 1 hour pre-incubation, in triplet. Summed up: as §1

The target of assay [1] is T3, IDH (endogenous IDH1 R132C) in HT1080 cell (Homo sapiens, UniProt O75874, R132C).
T3 construct: which harbor endogenous heterozygous IDH1 R132C and R132H mutation respectively and accumulate D-2-HG
Nature of the assay: Cell-based assay for IDH inhibition (decrease of D-2-HG) in HT1080 cells. To be noted: human fibrosarcoma cell line HT1080, 16 hours treatment, D-2-HG by LC-MS, in triplet. Summed up:
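LC-MS/MS quantification of D-2-HG, normalized to glutamate, follows a 16 h compound exposure of IDH1 R132C HT1080 cells in DMEM with 10% FBS. Extraction uses pre-chilled 40% methanol/40% acetonitrile in water. Triplicate determinations; IC50 from D-2-HG levels relative to DMSO-treated cells.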

pIC50: −log10 of the molar value.

As a reminder, the pIC50 is the IC50 on a negative log10 scale, so that one unit is a factor of ten.

T2 sequence (O75874 whole entry R132H): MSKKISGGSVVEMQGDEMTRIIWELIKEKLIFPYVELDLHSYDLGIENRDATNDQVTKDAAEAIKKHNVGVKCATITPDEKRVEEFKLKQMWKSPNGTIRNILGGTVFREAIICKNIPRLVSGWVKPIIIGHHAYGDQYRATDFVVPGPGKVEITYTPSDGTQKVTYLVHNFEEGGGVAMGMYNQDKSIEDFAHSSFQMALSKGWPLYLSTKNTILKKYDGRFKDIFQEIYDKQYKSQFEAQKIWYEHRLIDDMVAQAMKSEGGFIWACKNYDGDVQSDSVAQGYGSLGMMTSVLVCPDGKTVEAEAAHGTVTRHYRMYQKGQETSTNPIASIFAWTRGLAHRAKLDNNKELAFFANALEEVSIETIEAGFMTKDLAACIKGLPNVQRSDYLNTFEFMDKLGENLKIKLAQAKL
T3 sequence (O75874 2-414 R132C): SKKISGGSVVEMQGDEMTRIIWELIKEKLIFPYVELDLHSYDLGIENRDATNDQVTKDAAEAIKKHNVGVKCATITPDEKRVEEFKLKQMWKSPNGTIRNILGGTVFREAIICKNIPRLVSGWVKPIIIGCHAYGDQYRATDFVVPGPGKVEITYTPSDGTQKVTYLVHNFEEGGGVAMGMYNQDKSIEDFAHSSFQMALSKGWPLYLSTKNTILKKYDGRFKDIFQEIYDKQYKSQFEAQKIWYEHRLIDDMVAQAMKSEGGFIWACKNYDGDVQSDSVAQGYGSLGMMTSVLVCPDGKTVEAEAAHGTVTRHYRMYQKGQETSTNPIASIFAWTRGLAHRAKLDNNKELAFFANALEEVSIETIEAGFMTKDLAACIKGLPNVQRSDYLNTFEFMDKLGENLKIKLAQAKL
T1 sequence (O75874 whole entry R132C): as the sequence (O75874 whole entry R132H) above, with H132C counted along it

For `CCN1Cc2c(ccnc2N[C@@H](C)c2ccc(C3CCN(C(C)(C)C)CC3)c(F)c2)C1=O` [Compound 36, (S)-4-((1-(4-(1-(tert-butyl)piperidin-4-yl)-3-fluorophenyl)ethyl)amino)-2-ethyl-2,3-dihydro-1H-pyrrolo[3,4-c]pyridin-1-one], the pIC50 (at IDH1 R132C; at IDH1 R132H; in assay [1]) was below 6.00 each time.
Regarding `C[C@H](Nc1nccc2c1CN(CC(F)F)C2=O)c1ccc(-c2ccnc(C(C)(C)C)c2)c(F)c1` [Compound 37, (S)-4-((1-(4-(2-(tert-butyl)pyridin-4-yl)-3-fluorophenyl)ethyl)amino)-2-(2,2-difluoroethyl)-2,3-dihydro-1H-pyrrolo[3,4-c]pyridin-1-one], the pIC50 on IDH1 R132C was 6.30 to 7.00; at IDH1 R132H, 6.30 to 7.00; in assay [1] it was 6.00 to 6.30.
Regarding `C[C@H](Nc1nccc2c1CN(C(CF)CF)C2=O)c1ccc(-c2ccnc(C(C)(C)C)c2)c(F)c1` [Compound 38, (S)-4-((1-(4-(2-(tert-butyl)pyridin-4-yl)-3-fluorophenyl)ethyl)amino)-2-(1,3-difluoropropan-2-yl)-2,3-dihydro-1H-pyrrolo[3,4-c]pyridin-1-one], the pIC50 at IDH1 R132C is 6.30 to 7.00; on IDH1 R132H, above 7.00; in assay [1], 6.00 to 6.30.
In the case of `C[C@H](Nc1nccc2c1CN(CC(F)CF)C2=O)c1ccc(-c2ccnc(C(C)(C)C)c2)c(F)c1` (stereo partly drawn) [Compound 39, 4-(((S)-1-(4-(2-(tert-butyl)pyridin-4-yl)-3-fluorophenyl)ethyl)amino)-2-(2,3-difluoropropyl)-2,3-dihydro-1H-pyrrolo[3,4-c]pyridin-1-one], the negative-log IC50 (pIC50) on IDH1 R132C is below 6.00; on IDH1 R132H it was 6.30 to 7.00; in assay [1], below 6.00.
`C[C@H](Nc1nccc2c1CN([C@H](C)CF)C2=O)c1ccc(-c2ccnc(C(C)(C)C)c2)c(F)c1` [Compound 40, 4-(((S)-1-(4-(2-(tert-butyl)pyridin-4-yl)-3-fluorophenyl)ethyl)amino)-2-((R)-1-fluoropropan-2-yl)-2,3-dihydro-1H-pyrrolo[3,4-c]pyridin-1-one]: the pIC50 on IDH1 R132C was 6.30 to 7.00; on IDH1 R132H it was above 7.00; in assay [1], 6.30 to 7.00.
As for `CCN1Cc2c(N[C@@H](C)c3ccc(-c4ccc(F)c(C)c4)c(F)c3)ncc(F)c2C1=O` [Compound 41, (S)-4-((1-(2,4′-difluoro-3′-methyl-[1,1′-biphenyl]-4-yl)ethyl)amino)-2-ethyl-7-fluoro-2,3-dihydro-1H-pyrrolo[3,4-c]pyridin-1-one], the pIC50 at IDH1 R132C is 6.00 to 6.30; on IDH1 R132H, 6.30 to 7.00; in assay [1], below 6.00.
For `CCN1Cc2c(ccnc2N[C@@H](C)c2ccc(-c3ccnc(C(C)(C)C)c3)c(F)c2F)C1=O` [Compound 42, (S)-4-((1-(4-(2-(tert-butyl)pyridin-4-yl)-2,3-difluorophenyl)ethyl)amino)-2-ethyl-2,3-dihydro-1H-pyrrolo[3,4-c]pyridin-1-one], in that order: 6.30 to 7.00, above 7.00 and 6.30 to 7.00.
For `CCN1Cc2c(ccnc2N[C@@H](C)c2cc(F)c(-c3ccnc(C(C)(C)C)c3)c(F)c2)C1=O` [Compound 43, (S)-4-((1-(4-(2-(tert-butyl)pyridin-4-yl)-3,5-difluorophenyl)ethyl)amino)-2-ethyl-2,3-dihydro-1H-pyrrolo[3,4-c]pyridin-1-one], in that order: above 7.00, above 7.00 and 6.30 to 7.00.
With `CCN1Cc2c(ccnc2N[C@@H](C)c2cnc(-c3cc(C(C)(C)C)ccn3)c(F)c2)C1=O` [Compound 44, (S)-4-((1-(4′-(tert-butyl)-3-fluoro-[2,2′-bipyridin]-5-yl)ethyl)amino)-2-ethyl-2,3-dihydro-1H-pyrrolo[3,4-c]pyridin-1-one], the pIC50 on IDH1 R132C is below 6.00; at IDH1 R132H, below 6.00; in assay [1] it was 6.00 to 6.30.
In the case of `CCN1Cc2c(ccnc2N[C@@H](C)c2cc(C)c(-c3ccnc(C(F)(F)F)c3)cn2)C1=O` [Compound 45, (S)-2-ethyl-4-((1-(4-methyl-2′-(trifluoromethyl)-[3,4′-bipyridin]-6-yl)ethyl)amino)-2,3-dihydro-1H-pyrrolo[3,4-c]pyridin-1-one], the pIC50 (at IDH1 R132C; at IDH1 R132H; in assay [1]) was below 6.00 throughout.
In the case of `CCN1Cc2c(ccnc2N[C@@H](C)c2ccc(-c3ccnc(C(C)(C)C)c3)cn2)C1=O` [Compound 46, (S)-4-((1-(2′-(tert-butyl)-[3,4′-bipyridin]-6-yl)ethyl)amino)-2-ethyl-2,3-dihydro-1H-pyrrolo[3,4-c]pyridin-1-one], the pIC50 (on IDH1 R132C; on IDH1 R132H; in assay [1]) was below 6.00 in each case.
Take `CCN1Cc2c(ccnc2N[C@@H](C)c2ncc(-c3ccccc3)cn2)C1=O` [Compound 47, (S)-2-ethyl-4-((1-(5-phenylpyrimidin-2-yl)ethyl)amino)-2,3-dihydro-1H-pyrrolo[3,4-c]pyridin-1-one]: the pIC50 (on IDH1 R132C; at IDH1 R132H; in assay [1]) was below 6.00 each time.
`CCN1Cc2c(ccnc2N[C@@H](C)c2ncc(-c3ccc(F)c(C)c3)cn2)C1=O` [Compound 48, (S)-2-ethyl-4-((1-(5-(4-fluoro-3-methylphenyl)pyrimidin-2-yl)ethyl)amino)-2,3-dihydro-1H-pyrrolo[3,4-c]pyridin-1-one]: the pIC50 (on IDH1 R132C; on IDH1 R132H; in assay [1]) was below 6.00 each time.
Consider `CCN1Cc2c(ccnc2N[C@@H](C)c2ncc(-c3cccc(C)c3F)cn2)C1=O` [Compound 49, (S)-2-ethyl-4-((1-(5-(2-fluoro-3-methylphenyl)pyrimidin-2-yl)ethyl)amino)-2,3-dihydro-1H-pyrrolo[3,4-c]pyridin-1-one], for which the pIC50 (on IDH1 R132C; at IDH1 R132H; in assay [1]) was below 6.00 each time.
`CCN1Cc2c(ccnc2N[C@@H](C)c2ncc(-c3ccc(OC)cc3)cn2)C1=O` [Compound 50, (S)-2-ethyl-4-((1-(5-(4-methoxyphenyl)pyrimidin-2-yl)ethyl)amino)-2,3-dihydro-1H-pyrrolo[3,4-c]pyridin-1-one]: the pIC50 (on IDH1 R132C; on IDH1 R132H; in assay [1]) was below 6.00 in each case.
Take `CCN1Cc2c(ccnc2N[C@@H](C)c2ccc(Cc3ccc(F)c(C)c3)c(F)c2)C1=O` [Compound 51, (S)-2-ethyl-4-((1-(3-fluoro-4-(4-fluoro-3-methylbenzyl)phenyl)ethyl)amino)-2,3-dihydro-1H-pyrrolo[3,4-c]pyridin-1-one]: the negative logarithm of the IC50 (pIC50) at IDH1 R132C was 6.30 to 7.00; at IDH1 R132H, 6.30 to 7.00; in assay [1], below 6.00.
Turning to `CCN1Cc2c(ccnc2N[C@@H](C)c2ccc(Cc3ccccc3)c(F)c2)C1=O` [Compound 52, (S)-4-((1-(4-benzyl-3-fluorophenyl)ethyl)amino)-2-ethyl-2,3-dihydro-1H-pyrrolo[3,4-c]pyridin-1-one], the negative logarithm of the IC50 (pIC50) on IDH1 R132C is 6.30 to 7.00; at IDH1 R132H it was 6.30 to 7.00; in assay [1], below 6.00.
As for `CCN1Cc2c(ccnc2N[C@@H](C)c2ncc(Cc3ccc(F)c(C)c3)cn2)C1=O` [Compound 54, (S)-2-ethyl-4-((1-(5-(4-fluoro-3-methylbenzyl)pyrimidin-2-yl)ethyl)amino)-2,3-dihydro-1H-pyrrolo[3,4-c]pyridin-1-one], the pIC50 (at IDH1 R132C; at IDH1 R132H; in assay [1]) was below 6.00 throughout.
For the molecule `CCN1Cc2c(ccnc2N[C@@H](C)c2ccc(CN3CCC(F)(F)CC3)c(F)c2)C1=O` [Compound 55, (S)-4-((1-(4-((4,4-difluoropiperidin-1-yl)methyl)-3-fluorophenyl)ethyl)amino)-2-ethyl-2,3-dihydro-1H-pyrrolo[3,4-c]pyridin-1-one], the pIC50 (at IDH1 R132C; on IDH1 R132H; in assay [1]) was below 6.00 in each case.
`CCN1Cc2c(ccnc2N[C@@H](C)c2cn(-c3ccnc(C(C)(C)C)c3)cn2)C1=O` [Compound 56, (S)-4-((1-(1-(2-(tert-butyl)pyridin-4-yl)-1H-imidazol-4-yl)ethyl)amino)-2-ethyl-2,3-dihydro-1H-pyrrolo[3,4-c]pyridin-1-one]: the pIC50 (on IDH1 R132C; at IDH1 R132H; in assay [1]) was below 6.00 in each case.
In the case of `CCN1Cc2c(N[C@@H](C)c3cn(-c4ccc(F)cc4)cn3)ncc(F)c2C1=O` [Compound 57, (S)-2-ethyl-7-fluoro-4-((1-(1-(4-fluorophenyl)-1H-imidazol-4-yl)ethyl)amino)-2,3-dihydro-1H-pyrrolo[3,4-c]pyridin-1-one], the pIC50 (on IDH1 R132C; on IDH1 R132H; in assay [1]) was below 6.00 throughout.
Regarding `CCN1Cc2c(ccnc2N[C@H](C)c2cn(-c3ccc(Cl)cc3)cn2)C1=O` [Compound 58, (R)-4-((1-(1-(4-chlorophenyl)-1H-imidazol-4-yl)ethyl)amino)-2-ethyl-2,3-dihydro-1H-pyrrolo[3,4-c]pyridin-1-one], the pIC50 (on IDH1 R132C; on IDH1 R132H; in assay [1]) was below 6.00 throughout.

The record behind these values is patent publication US12441725B2, “ISO-citrate dehydrogenase (IDH) inhibitor” (ZHEJIANG METON PHARMACEUTICAL CO., LTD, priority 2019, dated 2025).
